In US20180110978A1, “SYNERGISTIC REGULATED CELL DEATH INDUCTION WITH HSP90 INHIBITORS AND NANOSECOND PULSED ELECTRIC FIELDS” (Old Dominion University Research Foundation, priority 2015, published 2018):

How the values were obtained:
[1] = system: caspase 3/7 catalytic activity in N1-S1 cells; test: Caspase 3/7 catalytic activity in N1-S1 cells (Caspase-Glo); format: cell-based, rat
Procedure: In some embodiments, bar graph 402 represents the percentage change in caspase 3/7 catalytic activity after four (4) hours of incubation with 0.3 μM 17-AAG followed by the application of a single 600 ns pulse at different electric field intensities (from 0 to about 60 kV/cm). In these embodiments, bar graph 432 represents the percentage change in […] after 16 hours of incubation with 0.3 μM 17-AAG followed by the application of a single 600 ns pulse at different electric field intensities (from 0 to about 60 kV/cm).
In some embodiments, N1-S1 cells were incubated with or without 17-AAG for 4 hours or 16 hours to determine a synergistic activation of caspase 3/7 with 17-AAG and nsPEFs. In these embodiments, after the incubation period, N1-S1 cells were then treated with nsPEFs with increasing electric fields (one 600 ns pulse) and assayed for caspase 3/7 catalytic activity two (2) hours after pulsing. In an example, caspase 3/7 catalytic activity is measured employing Caspase-Glo (available from Promega, Madison, Wis.) 2 hours after pulsing.

N1-S1 rat HCC cells = test: Cell viability of N1-S1 rat HCC cells (CellTiter-Glo) after Hsp90 inhibitor and/or nsPEF; format: cell-based
Procedure: In some embodiments, N1-S1 rat HCC cells are exposed to an inhibitor of Hsp90 and then exposed to nsPEFs to cause cell death. In these embodiments, using the aforementioned methodology the cells mortality is greater than when either Hsp90 inhibitor or nsPEFs are employed alone. In an example, N1-S1 rat HCC cells are treated with 0.3 μM 17-AAG and incubated for 24 hours. In this example, after the 24 hours incubation period, the N1-S1 rat HCC cells are treated with a single 600 ns pulse with increasing electric field intensities (from about 10 kV/cm to about 60 kV/cm). Further to this example, cell viability is determined employing CellTiter-Glo (available from Promega, Madison, Wis.) 24 hours after pulsing.
In an example, mitochondria membrane potential (ΔΨm) and Ca^2+ influx are determined by employing Tetramethylrhodamine, ethyl ester (TMRE) Assay Kit and green-fluorescent calcium indicator, Fluo-4, respectively, 10 minutes after pulsing. In this example, cell viability is determined employing CellTiter-Glo (available from Promega, Madison, Wis.) 24 hours after pulsing.
In some embodiments, bar 502 illustrates the percentage of cell viability for a control sample where none of the treatments are employed. In these embodiments, bar 504 illustrates the percentage of cell viability when employing an Hsp90 inhibitor at a concentration of 0.3 μM (e.g., 17-AAG) without nsPEFs. Further to these embodiments, bar 506 illustrates the percentage of cell viability when employing only a single 600 nsPEF of 60 kV/cm. Still further to these embodiments, bar 508 illustrates the percentage of cell viability when employing both treatments (0.3 μM 17-AAG and single 600 ns pulse of 60 kV/cm). In an example, N1-S1 HCC cells are employed for the cell viability test.

cleaved caspase 3 = test: Western blot for cleaved caspase 3 relative to β-actin (LI-COR Odyssey CLx); format: cell-based
From the text: FIG. 7 is a graphical representation illustrating western blot test results for cleaved caspase 3 when employing an Hsp90 inhibitor at different concentrations, according to an embodiment. In FIG. 7, western blot test results 700 include stained bands 702 and cleaved caspase 3 fold change graph 708. In FIG. 7, stained bands 702 include cleaved caspase 3 bands 704 and β-actin bands 706. In FIG. 7, cleaved caspase 3 fold change graph 708 includes bars 710, 712, and 714. In an example, the western blot data is quantified using a LI-COR Odyssey CLx imaging system. In FIG. 7, stained bands 702 is a photographic representation depicting an expression of cleaved caspase 3 as a function of concentration of an Hsp90 inhibitor (e.g., AUY922). In FIG. 7, cleaved caspase 3 fold change graph 708 is a graphical representation illustrating fold changes of caspase 3 with respect to β-actin. FIG. 8 is a graphical representation illustrating western blot test results for cleaved caspase 3 when employing an Hsp90 inhibitor alone, nsPEF alone, or a combination of both treatments, according to an embodiment. In FIG. 8, western blot test results 800 include stained bands 802 and caspase 3 fold change graph 808. In FIG. 8, stained bands 802 include cleaved caspase 3 bands 804, β-actin bands 806, and caspase expression 807. In FIG. 8, caspase 3-fold change graph 808 includes bars 810, 812, and 814. In an example, the western blot data is quantified using LI-COR Odyssey CLx imaging system. In some embodiments, stained bands 802 is a photographic representation depicting an expression of cleaved caspase 3 as a function of the treatment employed. In these embodiments, caspase 3 fold change graph 808 is a graphical representation illustrating fold changes of caspase 3 with respect to β-actin.

C=CCNC1=C2C[C@@H](C)C[C@H](OC)[C@H](O)[C@@H](C)/C=C(\C)[C@H](OC(N)=O)[C@@H](OC)/C=C\C=C(/C)C(=O)NC(=CC1=O)C2=O [17-AAG]
effect of 17-AAG on the nsPEF-induced modest change in catalytic activity ([1]; 0.3 μM 17-AAG 4 h, then 600 ns pulse at higher electric fields 50-60 kV/cm (bars 428, 430)): no effect
effect of 17-AAG on the nsPEF-induced modest change in caspase activity ([1]; 0.3 μM 17-AAG 4 h, then 600 ns pulse at lower electric fields 10-40 kV/cm (bars 420-426)): no effect
change in caspase 3/7 activity ([1]; 0.3 μM 17-AAG alone, 4 hours of incubation (bar 418, FIG. 4)): no significant change
change in caspase 3/7 activity ([1]; 0.3 μM 17-AAG, 16 h of incubation, unaffected by nsPEFs (FIG. 4)): significant increases
synergistic effects on caspase 3/7 activity of 17-AAG together with nsPEFs ([1]; the two treatments included together): no synergistic effects
cell viability reduction (N1-S1 rat HCC cells; 0.3 μM 17-AAG alone, 24 h incubation, no nsPEF (bar 116, FIG. 1), viability 24 h after pulsing time): about 25%
additional increase in the reduction of cell viability (N1-S1 rat HCC cells; 0.3 μM 17-AAG plus nsPEF at about 50 kV/cm (bar 610, FIG. 6)): about 45%
percentage of cell viability (N1-S1 rat HCC cells; 0.3 μM 17-AAG plus single 600 ns pulse of 60 kV (bar 508, FIG. 5)): about 17%
cells killed (N1-S1 rat HCC cells; cells pre-treated with 0.3 μM 17-AAG, then single 600 ns pulse of 50 kV/cm): 80%

CCNC(=O)c1noc(-c2cc(C(C)C)c(O)cc2O)c1-c1ccc(CN2CCOCC2)cc1 [AUY922]
ratio of caspase 3 to β-actin (fold change) (cleaved caspase 3; 1 μM AUY922, no nsPEF (bar 712, FIG. 7), no AUY922 about 1): about 2
ratio of caspase 3 to β-actin (fold change) (cleaved caspase 3; 1 μM AUY922 alone (bar 814, FIG. 8)): ~3
ratio of caspase 3 to β-actin (fold change) (cleaved caspase 3; 1 μM AUY922 plus nsPEF of 600 ns at 20 kV/cm (bar 812, FIG. 8)): about 7
ratio of caspase 3 to β-actin (fold change) (cleaved caspase 3; 10 μM AUY922, no nsPEF (bar 714, FIG. 7), no AUY922 about 1): about 7
